Test results from PMC11519908, “Luminescent Ln(III)-Metallopeptide Sensors for Monitoring Pseudomonas aeruginosa Elastase B Activity in Complex Biological Media” (ACS Sensors, 2024).

Tests used:
[1] = tested on: supernatants from the LasB-deficient P. aeruginosa mutants; settings: P1[Tb]: 0.5 mM probe, 50 mM CaCl2, HEPES buffer, 9 µL supernatant, RT, 1 h before injection
[2] = tested on: supernatants from P. aeruginosa mutant strains deficient in LasB (LasB1, LasB2); settings: pH 8

Substance: EGLAEW [P1[Tb]]
- integrity of probe with LasB-deficient P. aeruginosa supernatants (HPLC-MS) [1]: remained intact
- change of luminescence over time with LasB-deficient P. aeruginosa supernatants [2]: no changes in the luminescence
